In US5208237A, “7-oxypropylsulfonamido-imidazo[4,5-b]quinolin-2-ones” (Bristol-Meyers Squibb Company, priority 1992, dated 1993):
In brackets after ≈: the same amount, converted by molar mass. Where a name gives a salt, the structure may show the parent alone. Read-outs that look alike come from different tables or passages of the source.

Legend:
Aqueous solubility = assay type: physicochemical; settings: water
human blood platelets = experiment: In vitro inhibition of ADP-induced human platelet aggregation in platelet-rich plasma (aggregometer method of Born); settings: for IC50: Homo sapiens, Platelet, read-out: IC50 vs ADP in human PRP, human PRP, 3 min preincubation at about 37° C., final ADP 5.86 mM (so in the source)
Experimental: The aggregometer method of Born, G. V. R., J. Physiol., (London), 162, 67-68, (1962) as modified by Mustard, J. F., et al., J. Lab. Clin. Med., 64, 548-599, (1964) was used to assess the in vitro activity of the various compounds as to the inhibition of adenosine diphosphate (ADP) and collagen-induced platelet aggregation. The human volunteer donor's arm is cleansed with 70% ethyl alcohol. A sterile 20 ml syringe and needle are used to withdraw 20 ml of blood. The blood is immediately added to a test tube containing 3.8% sodium citrate to prevent clotting (1 part citrate to 9 parts blood).
Platelet rich plasma (PRP) was separated by centrifugation for 10 minutes at 1000 rpm (140xg) from citrated (3.8%) human blood. All glassware used for preparation of PRP is silicon treated. ADP in final concentration of 0.5 μg/mL or 0.05 mL of a collagen suspension prepared according to the method described by Evans, G., et al., J. Exp. Med., 128, 877-894, (1968) was used to induce aggregation. The various compounds tested were dissolved in dimethylsulfoxide (DMSO) so that 5 μl added to the platelet rich plasma would yield the desired test concentration. Vehicle control trials were done and compared with aggregation induced in platelet rich plasma containing various concentrations of the test compounds. Dose response curves were obtained and Inhibitor Concentration (IC50) values calculated.
The test compounds were incubated at about 37° C. in PRP for about 3 minutes prior to the addition of sufficient ADP to provide a final ADP concentration of 5.86 mM.

[1] = free base (* footnote), read-out: Aqueous Solubility of Free Base
[2] = not marked as free base, read-out: Aqueous Solubility

SMILES | solubility (Aqueous solubility; [1]) [µg/mL] | IC50 (human blood platelets) [µg/mL] | solubility (Aqueous solubility; [2]) [µg/mL] | IC50 vs ADP in human PRP (human blood platelets; human PRP, 3 min preincubation at about 37° C., final ADP 5.86 mM (so in the source), dihydrochloride) [µg/mL]
O=CN1CCN(S(=O)(=O)CCCOc2ccc3nc4[nH]c(=O)[nH]c4cc3c2)CC1 [Compound 7, 3-[[(2,3-Dihydro-2-oxo-1H-imidazo[4,5-b]quinolin-7-yl)oxy]propyl]sulfonyll-1-piperazinecarboxaldehyde] | < 1000 | 5.6 (≈ 13.4 µM) |  | 
O=c1[nH]c2cc3cc(OCCCS(=O)(=O)N4CCNCC4)ccc3nc2[nH]1 [Compound 8, 1-[[3-[(2,3-Dihydro-2-oxo-1H-imidazo[4,5-b]quinolin-7-yl)oxy]propyl]sulfonyl]piperazine] | ~1000 (≈ 2550 µM) | 7.2 (≈ 18.4 µM) |  | 
O=c1[nH]c2cc3cc(OCCCS(=O)(=O)N4CCN(Cc5ccccc5)CC4)ccc3nc2[nH]1 [Compound 9c] | ~1000 (≈ 2080 µM) | 0.059 (≈ 0.123 µM) |  | 
O=c1[nH]c2cc3cc(OCCCS(=O)(=O)N4CCNCC4)ccc3nc2[nH]1 [Compound 10a, 1-[[3-[(2,3-Dihydro-2-oxo-1H-imidazo[4-5-b]quinolin-7-yl)oxy]propyl]sulfonyl]piperazine dihydrochloride] |  |  | > 20000 | 6.4
Cl.Cl.O=c1[nH]c2cc3cc(OCCCS(=O)(=O)N4CCN(Cc5ccccc5)CC4)ccc3nc2[nH]1 [Compound 10c, 1-[[3-[(2,3-Dihydro-2-oxo-1H-imidazo[4,5-b]quinolin-7-yl)oxy]propyl]sulfonyl]-4-(phenylmethyl)piperazine dihydrochloride] |  | 0.039 | > 20000 | 
Cl.Cl.O=c1[nH]c2cc3cc(OCCCS(=O)(=O)N4CCN(Cc5ccc(F)cc5)CC4)ccc3nc2[nH]1 [Compound 10d, 1-[[3-[(2,3-Dihydro-2-oxo-1H-imidazo[4,5-b]quinolin-7-yl)oxy]propyl]sulfonyl]-4-(4-fluorophenylmethyl) piperazine dihydrochloride] |  | 0.16 | > 20000 | 
Cl.Cl.O=c1[nH]c2cc3cc(OCCCS(=O)(=O)N4CCN(Cc5ccc(Cl)cc5)CC4)ccc3nc2[nH]1 [Compound 10e, 1-[[3-[(2,3-Dihydro-2-oxo-1H-imidazo[4,5-b]quinolin-7-yl)oxy]propyl]sulfonyl]-4-(4-chlorophenylmethyl) piperazine dihydrochloride] |  | 0.32 | > 20000 | 
COc1ccc(CN2CCN(S(=O)(=O)CCCOc3ccc4nc5[nH]c(=O)[nH]c5cc4c3)CC2)cc1 [Compound 10f, 1-[[3-[(2,3-Dihydro-2-oxo-1H-imidazo[4,5-b]quinolin-7-yl)oxy]propyl]sulfonyl]-4-[(4-methoxyphenylmethyl)piperazinedihydrochloride] |  | 0.27 | > 20000 | 
Cl.Cl.O=c1[nH]c2cc3cc(OCCCS(=O)(=O)N4CCN(CC5CCCCC5)CC4)ccc3nc2[nH]1 [Compound 10g, 1-[[3-[(2,3-Dihydro-2-oxo-1H-imidazo[4,5-b]quinolin-7-yl)oxy]propyl]sulfonyl]-4-(cyclohexylmethyl) piperazine dihydrochloride] |  | 0.064 | > 20000 | 
Cl.Cl.O=c1[nH]c2cc3cc(OCCCS(=O)(=O)N4CCN(c5nc6ccccc6o5)CC4)ccc3nc2[nH]1 [Compound 10h, 1-(Benzoxazol-2-yl)-4-[[3-[(2,3-dihydro-2-oxo-1H-imidazo[4,5-b]quinolin-7-yl)oxy]propyl]sulfonyl]piperazine dihydrochloride] |  | 1.4 | > 20000 | 
Cl.O=c1[nH]c2cc3cc(OCCCS(=O)(=O)N4CCN(c5nc6ccccc6s5)CC4)ccc3nc2[nH]1 [Compound 10i, 1-(Benzothiazol-2-yl)-4-[[3-[(2,3-dihydro-2-oxo-1H-imidazo[4,5-b]quinolin-7-yl)oxy]propyl]sulfonyl]piperazine hydrochloride] |  | 2.8 | ~1000 | 
Cl.Cl.O=c1[nH]c2cc3cc(OCCCS(=O)(=O)N4CCN(CCC5CCCCC5)CC4)ccc3nc2[nH]1 [Compound 10j, 1-[[3-[(2,3-Dihydro-2-oxo-1H-imidazo[4,5-b]quinolin-7-yl)oxy]propyl]sulfonyl]-4-(2-cyclohexylethyl) piperazine dihydrochloride] |  | 1.2 | < 5000 | 
O=c1[nH]c2cc3cc(OCCCS(=O)(=O)N4CCN(CCc5ccccc5)CC4)ccc3nc2[nH]1 [Compound 10k, 3-[[(2,3-Dihydro-2-oxo-1H-imidazo[4,5-b]quinolin-7-yl)oxy]propyl]sulfonyl]-4-(2-phenylethyl)piperazine dihydrochloride] |  | 0.6 | < 10000 | 
CCC(CC)CN1CCN(S(=O)(=O)CCCOc2ccc3nc4[nH]c(=O)[nH]c4cc3c2)CC1 [Compound 10l, 1-[[3-(2,3-Dihydro-2-oxo-1H-imidazo-[4,5-b]quinolin-7-yl)oxy]propyl]sulfonyl]-4-(2-ethylbut-1-yl)piperazine dihydrochloride] |  | 0.09 | > 10000 | 
Cl.Cl.O=c1[nH]c2cc3cc(OCCCS(=O)(=O)N4CCN(Cc5cccc(C(F)(F)F)c5)CC4)ccc3nc2[nH]1 [Compound 10m, 1-[[3-[(2,3-Dihydro-2-oxo-1H-imidazo[4,5-b]quinolin-7-yl)oxy]propyl]sulfonyl]-4-[(3-trifluoromethylphenyl)methyl]piperazine dihydrochloride] |  | 0.2 | ~2000 | 
